Test results: patent US20250009819A1, “NOVEL PROBIOTICS AND USE THEREOF” (PBLBIOLAB CO., LTD., priority 2021, published 2025)

What was measured:
Format in all cases: in vivo, C57BL/6 male mice
[1] = tested on: immunosuppressed animals induced by anticancer drug (cyclophosphamide); assay: Immunosuppressed animals induced by cyclophosphamide: cognitive improvement, hippocampus indicators; settings: cyclophosphamide (CP)-treated mice, 1×10^9 CFU/mouse orally once a day for 5 days; for IFN-γ/IL-10 / IL-10 / Interferon (IFN)-γ / TNF-a/IL-10 / TNF-α: hippocampus
Protocol: (§1) Hippocampus, colon, and spleen tissues were homogenized by adding 1 ml of RIPA buffer (Gibco) containing protease inhibitor cocktail and centrifuged at 4° C., 13000 rpm for 15 min to obtain supernatant. Indicators of this supernatant were measured using an ELISA kit (Ebioscience).
(§2) The Y-shaped maze measurement device is shaped like an alphabetical Y with three arms extending from it, each arm being 25 cm long, 14 cm high, 5 cm wide, and positioned at the same angle. At the end of one arm of the Y-shaped maze, the animal was placed with its head facing out and allowed to freely navigate the arm for 8 minutes. The animal's movements were recorded, and reported as arm entries when the animal entered the arm with its hind paw, and the animal's movement was represented by an alternation, which was defined as one alternation when the animal passed through the three arms in succession. The amount of spontaneous alternation behavior was expressed as a percentage between the actual number of alternations and the maximum possible number of alternations (i.e., the total number of […] minus 2).
(§3) The experiment was conducted in a box (40×40×40 cm) made so that the outside could not be seen from the inside. Two objects (A, A′) of the same shape and size were fixedly disposed in a box and the mouse was relocated to start from the center of the box. Then, the number of times the mouse made contact with the two objects was recorded for 10 minutes. After 24 hours, one of the two objects was replaced with a new object (A, B). Then, one original object and one new object were prepared, and the animal's exploration time was measured.
(§4) C57BL/6 male mice (5 weeks old, 19-21 g) were divided (6 mice in each group) and acclimatized to the laboratory for 1 week. To induce intestinal and brain diseases, the mice were administered with cyclophosphamide (CP, 150 mg/kg, dissolved in physiological saline) for 1 day, rested for 1 day, and then administered intraperitoneally the next day. Meanwhile, the normal group was administered intraperitoneally with 0.1 ml of physiological saline. […] The day following the conclusion of sample administration, the experimental animals were sacrificed, and samples from the brain hippocampus, colon, and spleen were collected. In the Hippocampus, inflammatory indicators, such as IFN-γ, TNF-α, and IL-10, were measured using ELISA. In the colon, intestinal length and inflammatory indicators, such as IFN-γ, TNF-α, and IL-10, were measured. In the spleen, Th1 cells and Treg cells were measured by FACS (Fluorescence-Activated Cell Sorting).

[2] = tested on: animals with antibiotic-induced gut microbiota imbalance; assay: Animals with antibiotic (ampicillin)-induced gut microbiota imbalance: improvement effect in spleen; settings: ampicillin (AP)-treated mice, 1×10^9 CFU/mouse orally once a day for 5 days; for Foxp3 (fold change) / Tbet (fold change) / Tbet/Foxp3: spleen qPCR; for IFN-γ/IL-10 / IL-10 / Interferon (IFN)-γ / NK cell cytoxicity (%) / Phagocytosis (%) / TNF-a/IL-10 / TNF-α: spleen
Protocol: as §1
(§5) mRNA was isolated from spleen tissue using the RNA Isolation Kit: RNeasy Mini Kit (QIAGEN), converted to cDNA, and qPCR was performed to measure the expression rates of Tbet, Foxp3, and glyceraldehyde 3-phosphate dehydrogenase (GAPDH). The reaction product was first treated at 95° C. for 30 seconds, followed by 38 cycles of 5 seconds at 95° C. and 30 seconds at 72° C. for analysis.
(§6) C57BL/6 male mice (5 weeks old, 19-21 g) were divided (6 mice in each group) and acclimatized to the laboratory for 1 week. To induce intestinal and brain diseases, the mice were orally administered with ampicillin (AP, 100 mg/kg, dissolved in physiological saline) for 3 days. Meanwhile, the normal group was orally administered with 0.1 ml of physiological saline. […] The day following the conclusion of sample administration, the experimental animals were sacrificed, and samples from the brain hippocampus, colon, and spleen were collected. In the Hippocampus, inflammatory indicators, such as IFN-γ, TNF-α, and IL-10, were measured using ELISA. In the colon, intestinal length and inflammatory indicators, such as IFN-γ, TNF-α, and IL-10, were measured. In the spleen, Th1 cells and Treg cells were measured by FACS (Fluorescence-Activated Cell Sorting), and in feces, endotoxin (LPS) and gut microbial communities were measured.

[3] = tested on: animals with antibiotic-induced gut microbiota imbalance; assay: Animals with antibiotic (ampicillin)-induced gut microbiota imbalance: colitis improvement (colon); settings: ampicillin (AP)-treated mice, 1×10^9 CFU/mouse orally once a day for 5 days
Protocol: To 100 mg of colon tissue, 200 μl of 10 mM potassium phosphate buffer (pH 7.0) containing 0.5% hexadecyl trimethyl ammonium bromide was added and homogenized. Then, the supernatant was obtained by centrifugation for 10 minutes at 4° C. and 10,000 g. A volume of 50 μl of the supernatant was added to 0.95 mk of reaction solution (containing 1.6 mM tetramethyl benzidine and 0.1 mM H2O2), reacted at 37° C., and absorbance was monitored over time at 650 nm.
as §1, §6

[4] = tested on: immunosuppressed animals induced by anticancer drug (cyclophosphamide); assay: Immunosuppressed animals induced by cyclophosphamide: improvement effect in spleen; settings: cyclophosphamide (CP)-treated mice, 1×10^9 CFU/mouse orally once a day for 5 days; for Foxp3 (fold change) / Tbet (fold change) / Tbet/Foxp3: spleen qPCR; for IFN-γ/IL-10 / IL-10 / Interferon (IFN)-γ / NK cell cytoxicity (%) / Phagocytosis (%) / TNF-a/IL-10 / TNF-α: spleen
Protocol: as §1, §5, §4

[5] = tested on: animals with antibiotic-induced gut microbiota imbalance; assay: Animals with antibiotic (ampicillin)-induced gut microbiota imbalance: cognitive improvement, hippocampus indicators; settings: ampicillin (AP)-treated mice, 1×10^9 CFU/mouse orally once a day for 5 days; for IFN-γ/IL-10 / IL-10 / Interferon (IFN)-γ / TNF-a/IL-10 / TNF-α: hippocampus
Protocol: as §1, §2, §3, §6

Q: How did the “Exoporation (%) (in NOR task)” value [1] turn out when Lactobacillus rhamnosus NK210 was run?
A: Its value is 78.71%.

Q: And the “Spontaneous alteration (%) (in Y-maze task)” value (from here on “Spontaneous alteration (%)”) [1]?
A: The value was 70.94%.

Q: What about the IFN-γ/IL-10 [1] of the same substance?
A: The IFN-γ/IL-10 was 0.59.

Q: And the IL-10 [1]?
A: Its IL-10 is 43.29 pg/mg.

Q: And the “Interferon (IFN)-γ” value [1]?
A: Its value is 25.30 pg/mg.

Q: What about the TNF-a/IL-10 [1] of the same substance?
A: The TNF-a/IL-10 was 0.24.

Q: What about the TNF-α [1] of the same substance?
A: Its TNF-α is 10.44 pg/mg.

Q: And the “Foxp3 (fold change)” value [2]?
A: The value was 0.69 fold change.

Q: What about the “Tbet (fold change)” value [2] of the same substance?
A: The value was 1.07 fold change.

Q: What about the Tbet/Foxp3 [2] of the same substance?
A: Its Tbet/Foxp3 is 1.66.

Q: What about the IFN-γ/IL-10 [2] of the same substance?
A: Its IFN-γ/IL-10 is 0.87.

Q: And the IL-10 [2]?
A: Its IL-10 is 8.25 pg/mg.

Q: And the “Interferon (IFN)-γ” value [2]?
A: The value was 7.03 pg/mg.

Q: And the “NK cell cytoxicity (%)” value [2]?
A: The value was 7.34%.

Q: What about the “Phagocytosis (%)” value [2] of the same substance?
A: Its value is 74.02%.

Q: And the TNF-a/IL-10 [2]?
A: The TNF-a/IL-10 was 0.45.

Q: And the TNF-α [2]?
A: Its TNF-α is 3.57 pg/mg.

Q: And the “Colon (cm)” value [3]?
A: The value was 5.28 cm.

Q: And the IFN-γ/IL-10 [3]?
A: Its IFN-γ/IL-10 is 0.31.

Q: And the IL-10 [3]?
A: The IL-10 was 21.31 pg/mg.

Q: What about the “Interferon (IFN)-γ” value [3] of the same substance?
A: Its value is 5.94 pg/mg.

Q: And the MPO activity [3]?
A: Its MPO activity is 11.60 μUnit/mg.

Q: And the TNF-a/IL-10 [3]?
A: Its TNF-a/IL-10 is 1.43.

Q: And the TNF-α [3]?
A: The TNF-α was 22.86 pg/mg.

Q: And the “Foxp3 (fold change)” value [4]?
A: Its value is 0.37 fold change.

Q: What about the “Tbet (fold change)” value [4] of the same substance?
A: The value was 0.75 fold change.

Q: And the Tbet/Foxp3 [4]?
A: Its Tbet/Foxp3 is 2.05.

Q: What about the IFN-γ/IL-10 [4] of the same substance?
A: Its IFN-γ/IL-10 is 2.31.

Q: And the IL-10 [4]?
A: Its IL-10 is 3.31 pg/mg.

Q: And the “Interferon (IFN)-γ” value [4]?
A: Its value is 7.39 pg/mg.

Q: What about the “NK cell cytoxicity (%)” value [4] of the same substance?
A: Its value is 8.26%.

Q: What about the “Phagocytosis (%)” value [4] of the same substance?
A: The value was 58.65%.

Q: What about the TNF-a/IL-10 [4] of the same substance?
A: The TNF-a/IL-10 was 1.04.

Q: And the TNF-α [4]?
A: Its TNF-α is 3.20 pg/mg.

Q: What about the “Exoporation (%) (in NOR task)” value [5] of the same substance?
A: Its value is 76.25%.

Q: What about the “Spontaneous alteration (%)” value [5] of the same substance?
A: Its value is 73.01%.

Q: What about the IFN-γ/IL-10 [5] of the same substance?
A: Its IFN-γ/IL-10 is 0.47.

Q: What about the IL-10 [5] of the same substance?
A: The IL-10 was 48.89 pg/mg.

Q: And the “Interferon (IFN)-γ” value [5]?
A: The value was 23.18 pg/mg.

Q: And the TNF-a/IL-10 [5]?
A: Its TNF-a/IL-10 is 0.26.

Q: What about the TNF-α [5] of the same substance?
A: The TNF-α was 13.37 pg/mg.

Q: Bifidobacterium longum NK219 was tested. Which “Exoporation (%) (in NOR task)” value [1] did it give?
A: The value was 78.34%.

Q: What about the “Spontaneous alteration (%)” value [1] of the same substance?
A: Its value is 71.26%.

Q: And the IFN-γ/IL-10 [1]?
A: The IFN-γ/IL-10 was 0.44.

Q: And the IL-10 [1]?
A: Its IL-10 is 53.74 pg/mg.

Q: What about the “Interferon (IFN)-γ” value [1] of the same substance?
A: The value was 23.48 pg/mg.

Q: What about the TNF-a/IL-10 [1] of the same substance?
A: The TNF-a/IL-10 was 0.20.

Q: And the TNF-α [1]?
A: Its TNF-α is 10.91 pg/mg.

Q: What about the “Foxp3 (fold change)” value [2] of the same substance?
A: Its value is 1.66 fold change.

Q: And the “Tbet (fold change)” value [2]?
A: The value was 1.03 fold change.

Q: And the Tbet/Foxp3 [2]?
A: Its Tbet/Foxp3 is 0.74.

Q: What about the IFN-γ/IL-10 [2] of the same substance?
A: The IFN-γ/IL-10 was 0.81.

Q: What about the IL-10 [2] of the same substance?
A: Its IL-10 is 11.35 pg/mg.

Q: What about the “Interferon (IFN)-γ” value [2] of the same substance?
A: The value was 9.12 pg/mg.

Q: What about the “NK cell cytoxicity (%)” value [2] of the same substance?
A: Its value is 6.47%.

Q: What about the “Phagocytosis (%)” value [2] of the same substance?
A: The value was 69.91%.

Q: What about the TNF-a/IL-10 [2] of the same substance?
A: The TNF-a/IL-10 was 0.40.

Q: What about the TNF-α [2] of the same substance?
A: The TNF-α was 4.32 pg/mg.

Q: What about the “Colon (cm)” value [3] of the same substance?
A: Its value is 5.45 cm.

Q: And the IFN-γ/IL-10 [3]?
A: The IFN-γ/IL-10 was 0.26.

Q: And the IL-10 [3]?
A: Its IL-10 is 26.75 pg/mg.

Q: What about the “Interferon (IFN)-γ” value [3] of the same substance?
A: Its value is 5.84 pg/mg.

Q: What about the MPO activity [3] of the same substance?
A: The MPO activity was 14.76 μUnit/mg.

Q: What about the TNF-a/IL-10 [3] of the same substance?
A: Its TNF-a/IL-10 is 1.16.

Q: What about the TNF-α [3] of the same substance?
A: Its TNF-α is 28.27 pg/mg.

Q: And the “Foxp3 (fold change)” value [4]?
A: The value was 0.36 fold change.

Q: And the “Tbet (fold change)” value [4]?
A: Its value is 0.95 fold change.

Q: What about the Tbet/Foxp3 [4] of the same substance?
A: Its Tbet/Foxp3 is 2.49.

Q: And the IFN-γ/IL-10 [4]?
A: The IFN-γ/IL-10 was 2.11.

Q: And the IL-10 [4]?
A: The IL-10 was 2.90 pg/mg.

Q: What about the “Interferon (IFN)-γ” value [4] of the same substance?
A: The value was 5.56 pg/mg.

Q: What about the “NK cell cytoxicity (%)” value [4] of the same substance?
A: Its value is 8.90%.

Q: What about the “Phagocytosis (%)” value [4] of the same substance?
A: Its value is 50.36%.

Q: What about the TNF-a/IL-10 [4] of the same substance?
A: The TNF-a/IL-10 was 0.87.

Q: And the TNF-α [4]?
A: The TNF-α was 2.45 pg/mg.

Q: What about the “Exoporation (%) (in NOR task)” value [5] of the same substance?
A: Its value is 83.21%.

Q: And the “Spontaneous alteration (%)” value [5]?
A: Its value is 70.54%.

Q: And the IFN-γ/IL-10 [5]?
A: Its IFN-γ/IL-10 is 0.48.

Q: What about the IL-10 [5] of the same substance?
A: Its IL-10 is 50.29 pg/mg.

Q: And the “Interferon (IFN)-γ” value [5]?
A: Its value is 24.33 pg/mg.

Q: What about the TNF-a/IL-10 [5] of the same substance?
A: The TNF-a/IL-10 was 0.28.

Q: And the TNF-α [5]?
A: Its TNF-α is 12.43 pg/mg.
